Structures are written as SMILES. Converted amounts (≈) assume the structure as drawn.

Data set [1] deals with A549 cells. Put plainly: cells. The class given is cell-based, Human. Conditions: 24 h exposure, WST assay; for IC50: Homo sapiens, read-out: IC50 (half inhibitory concentration by cell viability assay). The protocol: Human adenocarcinomic alveolar epithelial (A549) cells were obtained from the Korea Cell Line Bank (Seoul, Korea). Cells were grown in RPMI 1640 medium (Thermo Fisher Scientific, Waltham, MA, USA), containing 10% heat-inactivated fetal bovine serum (Thermo Fisher Scientific, Waltham, MA, USA) and 1% penicillin-streptomycin (Thermo Fisher Scientific, Waltham, MA, USA) under standard cell culture conditions (37 °C, 5% CO2, and 90% humidity).
A549 cells (1 × 10^4 cells) were incubated in 96-well plates overnight, and various concentrations (1, 10, 100, 1000, and 5000 μg/mL) of the eight selected chemicals were added to the cell culture medium. After 24 h of incubation, cell morphology was observed by optical microscopy, and cell viability was evaluated using EZ-Cytox kit (DoGenBio, Seoul, Korea) by quantifying purple formazan crystals. The membrane integrity was examined using an EZ-lactate dehydrogenase (LDH) kit (DoGenBio, Seoul, Korea) to measure the LDH level released from the cytosol into the culture medium. Absorbance was measured using a microplate reader (Tecan, Salzburg, Austria) at a wavelength of 450 nm.

The subject of data set [2] is rat. More on the design: method as in earlier work. Conditions: 1 h; cited from earlier work.
Data set [3] relates to rat. More on the design: method as in earlier work. Conditions: cited from earlier work.
Data set [4] has as its system rabbit. More on the design: method as in earlier work. Conditions: cited from earlier work.

For the compound `N#CNC(=N)N` [CG, Cyanoguanidine], in data set [1], the IC50 was above 5000 µg/mL.

As for `N=C(N)N.O=[N+]([O-])O` [GN, Guanidine mononitrate], the “IC50 (half inhibitory concentration by cell viability assay)” value in data set [1] worked out at 3417 µg/mL.

On to `N=C(N)N.N=C(N)N.O=C(O)O` [GC, Guanidine carbonate], for which, in data set [1], the “IC50 (half inhibitory concentration by cell viability assay)” value was found to be 1822 µg/mL.

Turning to `N=C(N)N.NS(=O)(=O)O` [GS, Guanidine sulfamate], the “IC50 (half inhibitory concentration by cell viability assay)” value in data set [1] stood at 2722 µg/mL.

Turning to `CCCCCCCCCCCCNC(=N)N` [dodine, dodecylguanidine acetate], in data set [2], the “Inhalation toxicity LC50” value was 1.05 µg/mL. Further, the “Acute oral toxicity LD50” value in data set [3] is on record as 1931 mg/kg. For the same compound, the “Dermal toxicity LD50” value in data set [4] is on record as above 2000 mg/kg.

For `Cl.N=C(N)N` [GH, Guanidine monohydrochloride], the “IC50 (half inhibitory concentration by cell viability assay)” value in data set [1] came out at 2373 µg/mL.

`CN(C)C(=N)N(C)C` [TMG, 1,1,3,3-Tetramethylguanidine]: the IC50 in data set [1] was determined as 1090 µg/mL (≈ 9.47 mM).

(Values after paper PMC7560342, “In Vitro and In Vivo Evaluation of the Toxic Effects of Dodecylguanidine Hydrochloride” (Toxics, 2020).)
